Where no end group is shown, it is not given here. [ ]: non-standard residue; d: D form. Lys(Me3) = C[N+](C)(C)CCCC[C@H](N)C(=O)O; Me3 = trimethyl (on lysine side chain); Lys(Me) = CNCCCC[C@H](N)C(=O)O
Tests used:
Experiment in all cases: Histone peptide microarray
Assay type in all cases: binding, human
Conditions in all cases: sheet "Array Heatmap"
AIRE (PP) = system: AIRE (PP)
Method in brief: (§1)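 Recombinant GST-PHD protein at 0.5 μM; 293-member modified histone peptide array; signals averaged from four repeats ± SD.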

BAZ2B = system: BAZ2B
Method in brief: as §1

BPTF (PB) = system: BPTF (PB)
Method in brief: as §1

CHD4 (PPCC) = system: CHD4 (PPCC)
Method in brief: as §1

CHD5 (PCC) = system: CHD5 (PCC)
Method in brief: as §1

CHD5 (PPCC) = system: CHD5 (PPCC)
Method in brief: as §1

DIDO1 = system: DIDO1
Method in brief: as §1

DPF2 (PPC2W2) = system: DPF2 (PPC2W2)
Method in brief: as §1

ING1 = system: ING1
Method in brief: as §1

ING2 = system: ING2
Method in brief: as §1

ING3 = system: ING3
Method in brief: as §1

ING4 = system: ING4
Method in brief: as §1

ING5 = system: ING5
Method in brief: as §1

KDM4C (TTP) = system: KDM4C (TTP)
Method in brief: as §1

KDM5A (1) = system: KDM5A (1)
Method in brief: as §1

KDM5A (3) = system: KDM5A (3)
Method in brief: as §1

KDM5B (1) = system: KDM5B (1)
Method in brief: as §1

KDM5B (3) = system: KDM5B (3)
Method in brief: as §1

KDM7A = system: KDM7A
Method in brief: as §1

MLL5 = system: MLL5
Method in brief: as §1

MORC3 (CW) = system: MORC3 (CW)
Method in brief: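 Purified PHD finger domains fused to GST are screened against 293 synthetic histone peptides bearing one or several post-translational modifications. The protein is used at 0.5 μM, and the signal from four replicate arrays is averaged, with standard deviation given.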

PHF13 = system: PHF13
Method in brief: as §1

PHF21A = system: PHF21A
Method in brief: as §1

PHF23 = system: PHF23
Method in brief: as §1

PHF2 = system: PHF2
Method in brief: as §1

PHF8 = system: PHF8
Method in brief: as §1

PHRF1 (RP) = system: PHRF1 (RP)
Method in brief: as §1

RAG2 = system: RAG2
Method in brief: as §1

SP140L = system: SP140L
Method in brief: as §1

TAF3 = system: TAF3
Method in brief: as §1

TRIM66 (PB) = system: TRIM66 (PB)
Method in brief: as §1

[1] = GST-tagged reader, histone peptide array, total n = 4

With “H3K56me3 (52-61): H3 52-61 (RRYQK(Me3)STELL; UniProt P68431 53-62, looked up, fragment)” the “Array Heatmap signal, AIRE (PP)” value (AIRE (PP); GST-tagged AIRE (PP), arrays performed twice, total replicate number n = 4) was 0.4132, the “Array Heatmap signal, BAZ2B” value (BAZ2B; GST-tagged BAZ2B, arrays performed twice, total replicate number n = 4) was 0.4232 and the “Array Heatmap signal, BPTF (PB)” value (BPTF (PB); GST-tagged BPTF (PB), arrays performed twice, total replicate number n = 4) was 0.343. The “Array Heatmap signal, CHD4 (PPCC)” value (CHD4 (PPCC); GST-tagged CHD4 (PPCC), arrays performed twice, total replicate number n = 4) was 0.5342, the “Array Heatmap signal, CHD5 (PCC)” value (CHD5 (PCC); GST-tagged CHD5 (PCC), arrays performed twice, total replicate number n = 4) was 0.7613 and the “Array Heatmap signal, CHD5 (PPCC)” value (CHD5 (PPCC); GST-tagged CHD5 (PPCC), arrays performed twice, total replicate number n = 4) was 0.5162. The “Array Heatmap signal, DIDO1” value (DIDO1; GST-tagged DIDO1, arrays performed twice, total replicate number n = 4) was 0.6681, the “Array Heatmap signal, DPF2 (PPC2W2)” value (DPF2 (PPC2W2); GST-tagged DPF2 (PPC2W2), arrays performed twice, total replicate number n = 4) was 0.6082 and the “Array Heatmap signal, ING1” value (ING1; GST-tagged ING1, arrays performed twice, total replicate number n = 4) was 0.5013. For the same substance, the “Array Heatmap signal, ING2” value (ING2; GST-tagged ING2, arrays performed twice, total replicate number n = 4) was 0.5755, the “Array Heatmap signal, ING3” value (ING3; GST-tagged ING3, arrays performed twice, total replicate number n = 4) was 0.4641 and the “Array Heatmap signal, ING4” value (ING4; GST-tagged ING4, arrays performed twice, total replicate number n = 4) was 0.4217. The “Array Heatmap signal, ING5” value (ING5; GST-tagged ING5, arrays performed twice, total replicate number n = 4) was 0.3269, the “Array Heatmap signal, KDM4C (TTP)” value (KDM4C (TTP); GST-tagged KDM4C (TTP), arrays performed twice, total replicate number n = 4) was 0.4664 and the “Array Heatmap signal, KDM5A (1)” value (KDM5A (1); GST-tagged KDM5A (1), arrays performed twice, total replicate number n = 4) was 0.4335. The “Array Heatmap signal, KDM5A (3)” value (KDM5A (3); GST-tagged KDM5A (3), arrays performed twice, total replicate number n = 4) was 0.4564, the “Array Heatmap signal, KDM5B (1)” value (KDM5B (1); GST-tagged KDM5B (1), arrays performed twice, total replicate number n = 4) was 0.6393 and the “Array Heatmap signal, KDM5B (3)” value (KDM5B (3); GST-tagged KDM5B (3), arrays performed twice, total replicate number n = 4) was 0.4529. The “Array Heatmap signal, KDM7A” value (KDM7A; GST-tagged KDM7A, arrays performed twice, total replicate number n = 4) was 0.3588, the “Array Heatmap signal, MLL5” value (MLL5; GST-tagged MLL5, arrays performed twice, total replicate number n = 4) was 0.5095 and the “Array Heatmap signal, MORC3 (CW)” value (MORC3 (CW); GST-tagged MORC3 (CW), arrays performed twice, total replicate number n = 4) was 0.3573. For the same substance, the “Array Heatmap signal, PHF13” value (PHF13; GST-tagged PHF13, arrays performed twice, total replicate number n = 4) was 0.5794, the “Array Heatmap signal, PHF21A” value (PHF21A; GST-tagged PHF21A, arrays performed twice, total replicate number n = 4) was 0.4399 and the “Array Heatmap signal, PHF23” value (PHF23; GST-tagged PHF23, arrays performed twice, total replicate number n = 4) was 0.5132. For the same substance, the “Array Heatmap signal, PHF2” value (PHF2; GST-tagged PHF2, arrays performed twice, total replicate number n = 4) was 0.4592, the “Array Heatmap signal, PHF8” value (PHF8; GST-tagged PHF8, arrays performed twice, total replicate number n = 4) was 0.3607 and the “Array Heatmap signal, PHRF1 (RP)” value (PHRF1 (RP); GST-tagged PHRF1 (RP), arrays performed twice, total replicate number n = 4) was 0.4158. For the same substance, the “Array Heatmap signal, RAG2” value (RAG2; GST-tagged RAG2, arrays performed twice, total replicate number n = 4) was 0.2347, the “Array Heatmap signal, SP140L” value (SP140L; GST-tagged SP140L, arrays performed twice, total replicate number n = 4) was 0.3549 and the “Array Heatmap signal, TAF3” value (TAF3; GST-tagged TAF3, arrays performed twice, total replicate number n = 4) was 0.2469. The “Array Heatmap signal, TRIM66 (PB)” value (TRIM66 (PB); GST-tagged TRIM66 (PB), arrays performed twice, total replicate number n = 4) was 0.5682.
With “H3K79me1: H3 74-84 (IAQDF[Lys(Me)]TDLRF; UniProt P68431 75-85, looked up, fragment) [Peptide H3K79me1]” the “Array Heatmap signal, AIRE (PP)” value (AIRE (PP); [1]) was 0.5028, the “Array Heatmap signal, BAZ2B” value (BAZ2B; [1]) was 0.4958 and the “Array Heatmap signal, BPTF (PB)” value (BPTF (PB); [1]) was 0.3836. The “Array Heatmap signal, CHD4 (PPCC)” value (CHD4 (PPCC); [1]) was 0.5797, the “Array Heatmap signal, CHD5 (PCC)” value (CHD5 (PCC); [1]) was 0.8253 and the “Array Heatmap signal, CHD5 (PPCC)” value (CHD5 (PPCC); [1]) was 0.6031. For the same substance, the “Array Heatmap signal, DIDO1” value (DIDO1; [1]) was 0.782, the “Array Heatmap signal, DPF2 (PPC2W2)” value (DPF2 (PPC2W2); [1]) was 0.6501 and the “Array Heatmap signal, ING1” value (ING1; [1]) was 0.5242. The “Array Heatmap signal, ING2” value (ING2; [1]) was 0.6117, the “Array Heatmap signal, ING3” value (ING3; [1]) was 0.5268 and the “Array Heatmap signal, ING4” value (ING4; [1]) was 0.4724. For the same substance, the “Array Heatmap signal, ING5” value (ING5; [1]) was 0.4005, the “Array Heatmap signal, KDM4C (TTP)” value (KDM4C (TTP); [1]) was 0.5424 and the “Array Heatmap signal, KDM5A (1)” value (KDM5A (1); [1]) was 0.5083. The “Array Heatmap signal, KDM5A (3)” value (KDM5A (3); [1]) was 0.5745, the “Array Heatmap signal, KDM5B (1)” value (KDM5B (1); [1]) was 0.6942 and the “Array Heatmap signal, KDM5B (3)” value (KDM5B (3); [1]) was 0.5123. The “Array Heatmap signal, KDM7A” value (KDM7A; [1]) was 0.422, the “Array Heatmap signal, MLL5” value (MLL5; [1]) was 0.6083 and the “Array Heatmap signal, MORC3 (CW)” value (MORC3 (CW); [1]) was 0.4301. The “Array Heatmap signal, PHF13” value (PHF13; [1]) was 0.6611, the “Array Heatmap signal, PHF21A” value (PHF21A; [1]) was 0.4933 and the “Array Heatmap signal, PHF23” value (PHF23; [1]) was 0.5609. The “Array Heatmap signal, PHF2” value (PHF2; [1]) was 0.4403, the “Array Heatmap signal, PHF8” value (PHF8; [1]) was 0.4078 and the “Array Heatmap signal, PHRF1 (RP)” value (PHRF1 (RP); [1]) was 0.4478. For the same substance, the “Array Heatmap signal, RAG2” value (RAG2; [1]) was 0.2827, the “Array Heatmap signal, SP140L” value (SP140L; [1]) was 0.3558 and the “Array Heatmap signal, TAF3” value (TAF3; [1]) was 0.2923. For the same substance, the “Array Heatmap signal, TRIM66 (PB)” value (TRIM66 (PB); [1]) was 0.6065.
With “H3K79me3: H3 74-84 (IAQDF[Lys(Me3)]TDLRF; UniProt P68431 75-85, looked up, fragment) [Peptide H3K79me3]” the “Array Heatmap signal, AIRE (PP)” value (AIRE (PP); [1]) was 0.4525, the “Array Heatmap signal, BAZ2B” value (BAZ2B; [1]) was 0.458 and the “Array Heatmap signal, BPTF (PB)” value (BPTF (PB); [1]) was 0.3567. For the same substance, the “Array Heatmap signal, CHD4 (PPCC)” value (CHD4 (PPCC); [1]) was 0.5886, the “Array Heatmap signal, CHD5 (PCC)” value (CHD5 (PCC); [1]) was 0.767 and the “Array Heatmap signal, CHD5 (PPCC)” value (CHD5 (PPCC); [1]) was 0.5544. For the same substance, the “Array Heatmap signal, DIDO1” value (DIDO1; [1]) was 0.7358, the “Array Heatmap signal, DPF2 (PPC2W2)” value (DPF2 (PPC2W2); [1]) was 0.6998 and the “Array Heatmap signal, ING1” value (ING1; [1]) was 0.5877. The “Array Heatmap signal, ING2” value (ING2; [1]) was 0.6086, the “Array Heatmap signal, ING3” value (ING3; [1]) was 0.4762 and the “Array Heatmap signal, ING4” value (ING4; [1]) was 0.4605. The “Array Heatmap signal, ING5” value (ING5; [1]) was 0.3656, the “Array Heatmap signal, KDM4C (TTP)” value (KDM4C (TTP); [1]) was 0.4877 and the “Array Heatmap signal, KDM5A (1)” value (KDM5A (1); [1]) was 0.4539. For the same substance, the “Array Heatmap signal, KDM5A (3)” value (KDM5A (3); [1]) was 0.4757, the “Array Heatmap signal, KDM5B (1)” value (KDM5B (1); [1]) was 0.6382 and the “Array Heatmap signal, KDM5B (3)” value (KDM5B (3); [1]) was 0.4402. The “Array Heatmap signal, KDM7A” value (KDM7A; [1]) was 0.3373, the “Array Heatmap signal, MLL5” value (MLL5; [1]) was 0.5385 and the “Array Heatmap signal, MORC3 (CW)” value (MORC3 (CW); [1]) was 0.3856. The “Array Heatmap signal, PHF13” value (PHF13; [1]) was 0.6042, the “Array Heatmap signal, PHF21A” value (PHF21A; [1]) was 0.4782 and the “Array Heatmap signal, PHF23” value (PHF23; [1]) was 0.5318. The “Array Heatmap signal, PHF2” value (PHF2; [1]) was 0.5812, the “Array Heatmap signal, PHF8” value (PHF8; [1]) was 0.3681 and the “Array Heatmap signal, PHRF1 (RP)” value (PHRF1 (RP); [1]) was 0.4811. The “Array Heatmap signal, RAG2” value (RAG2; [1]) was 0.2475, the “Array Heatmap signal, SP140L” value (SP140L; [1]) was 0.3582 and the “Array Heatmap signal, TAF3” value (TAF3; [1]) was 0.2594. For the same substance, the “Array Heatmap signal, TRIM66 (PB)” value (TRIM66 (PB); [1]) was 0.557.

— paper PMC6979384, “Characterization of the plant homeodomain (PHD) reader family for their histone tail interactions” (Epigenetics & Chromatin, 2020)
